From paper PMC8767159, “Multiparameter Optimization of Trypanocidal Cruzain Inhibitors With In Vivo Activity and Favorable Pharmacokinetics” (Frontiers in Pharmacology, 2022) come the findings set out here.

For one data set, the target named is T1, cruzain (Trypanosoma cruzi, UniProt P25779).
T1 construct: made in house; host or cells: Escherichia coli (strain M15)
Description: Cruzain enzyme inhibition assay (cleavage of fluorogenic substrate Z-FR-AMC). It counts as biochemical. The method, then: Pro-cruzain truncated at the C-terminus was expressed and purified using a previously described protocol ([Ferreira et al., 2019]). Escherichia coli (strain M15) cultures were grown overnight at 37°C and 200 rpm in Luria Bertani (LB) medium supplemented with ampicillin (100 μg/ml) and kanamycin (50 μg/ml). Next, the cultures were diluted 10-fold in fresh LB medium supplemented with 0.5 M NaCl, 0.2% glucose, 1 mM betaine, 0.5 M sorbitol, 100 μg/ml ampicillin, and 50 μg/ml kanamycin and incubated at 37°C and 200 rpm. At an optical density (OD600) of 0.9, the cultures were incubated at 47°C for 20 min to promote the expression of chaperones. Then, the expression of cruzain was induced by adding isopropyl β-D-thiogalactopyranoside (IPTG) to a final concentration of 0.2 mM, which was followed by overnight incubation of the cultures at 20°C and 200 rpm. Next, the cultures were centrifuged (5,000 rpm, 30 min, 4°C), and the cells were suspended in 50 ml of lysis buffer (300 mM NaCl, 50 mM Tris-HCl, and 1.6 mg/ml lysozyme, pH 8.0) per liter of culture and lysed by sonication (12 cycles of 30 s). This cell lysate was centrifuged (9,000 rpm, 30 min, 4°C), and the supernatant was collected. Cruzain was precipitated by incubation with 35% ammonium sulfate (2 h), and this suspension was centrifuged at 9,000 rpm for 30 min at 4°C. The precipitated cruzain was resuspended in lysis buffer, and the sample was dialyzed to eliminate ammonium sulfate. The soluble fraction of the dialysate was loaded on a Ni−NTA column (Qiagen, Hilden, Germany), and the contaminants were washed using washing buffer (300 mM NaCl, 50 mM Tris-HCl, and 10 mM imidazole, pH 8.0). Cruzain was eluted by applying an increasing imidazole gradient: 25, 50, 75, 100, and 250 mM. The fractions containing cruzain were pooled together and dialyzed against 1.5 L of 0.1 M acetate buffer, pH 5.5, and then concentrated to 0.5 mg/ml. Pro-cruzain was activated by incubation with activation buffer (100 mM sodium acetate, pH 5.5, 10 mM EDTA, 5 mM DTT, and 1 M NaCl) at 37°C. […] After activation, the enzyme was diluted 20-fold in binding buffer (20 mM sodium phosphate and 150 mM NaCl, pH 7.2) and added to thiopropyl Sepharose 6B resin (GE Healthcare Life Sciences, Pittsburgh, PA). After overnight incubation at 4°C, the resin was loaded on a column, and cruzain was eluted with binding buffer supplemented with 20 mM DTT. Fractions containing cruzain were pooled together and stored in 0.1 M sodium acetate, pH 5.5, at −80°C.
Cruzain activity was followed by monitoring the cleavage of the fluorogenic substrate Z-Phe-Arg-aminomethyl coumarin (Z-FR-AMC), as previously described ([Ferreira et al., 2019]), using 96-well flat-bottom black plates and wavelengths of 355 nm for excitation and 460 nm for emission. All cruzain assays were performed in 0.1 M sodium acetate buffer with 5 mM dithiothreitol (DTT) and 0.01% Triton X-100, pH 5.5. […] The cleavage of the substrate was monitored for 5 min, and the activity was calculated based on the initial reaction rates compared with the rate of a DMSO control at 30°C. The IC50 values were independently calculated by considering the rate measurements for at least six inhibitor concentrations, each evaluated in triplicate. To determine the mechanism of cruzain inhibition, eight concentrations of the substrate Z-FR-AMC and four concentrations of the inhibitor were employed, each in triplicate. Kinetic parameters were determined using the SigmaPlot (Systat Software Inc., Erkrath, Germany) enzyme kinetics module. Compounds were tested in two or three independent experiments. All enzyme assays were performed using varying Triton X-100 concentrations (0, 0.01, and 0.1%) ([Ferreira et al., 2009]). Compound concentrations were 100 μM in the single-dose percentage inhibition assays.

The next data set has as its target rhodesain (Trypanosoma brucei rhodesiense, UniProt Q95PM0). Description: Rhodesain fluorescence-based inhibition assay (Z-FR-AMC). It counts as biochemical. The note with it: Table S3; compound 100 µM. The method, then: Rhodesain activity was measured using a fluorescence-based assay as previously described ([Fonseca et al., 2015]). The cleavage rates of the fluorogenic substrate Z-Phe-Arg-aminomethyl coumarin (Z-FR-AMC) were monitored at wavelengths of 340 nm for excitation and 440 nm for emission. All assays were performed in triplicate in a 0.1 M sodium acetate buffer, pH 5.5, with 1 mM beta-mercaptoethanol and 0.01% Triton X-100. The final concentration of rhodesain was 3 nM, and the substrate concentration was 2.5 μM. The cleavage of the substrate was followed by continuous reading for 5 min, and enzyme activity in the presence of 100 μM of each potential inhibitor was calculated based on initial velocity rates compared to DMSO controls. All compounds were tested in triplicate in three independent experiments.

Data set [1] deals with T. cruzi intracellular amastigotes. Description: Assay against T. cruzi intracellular amastigotes (Tulahuen lacZ strain in HFF-1 fibroblasts). The data set is classed as cell-based, Trypanosoma cruzi. The note with it: Trypanosoma cruzi, HFF-1, 120 h, Table 3, 120 h, mean ± SD of three assays. The method, then: Biological assays against T. cruzi intracellular amastigotes were performed as reported previously using the T. cruzi Tulahuen strain, which is genetically engineered to express the E. coli β-galactosidase gene lacZ ([Buckner et al., 1996]). β-Galactosidase catalyzes a colorimetric reaction with chlorophenol red β-D-galactopyranoside (CPRG, Sigma Chemical Co., St. Louis, MO) as the substrate. The assays were conducted in 96-well tissue culture plates, and the compounds to be tested were prepared in 100% DMSO. Epimastigotes were maintained in liver infusion tryptone (LIT) enriched with 10% fetal calf serum (FCS), streptomycin, and penicillin at 28°C. Epimastigotes were converted to trypomastigotes by incubation in Grace’s insect medium (Sigma–Aldrich, St. Louis, MO) enriched with 10% FCS at 28°C. Human HFF-1 fibroblasts were seeded at 2 × 10^3/well in 80 μl of RPMI 1640 without phenol red and incubated overnight at 37°C and 5% CO2. Trypomastigotes were seeded at 1.0 × 10^4/well in 20 μl of RPMI 1640, and the plates were incubated at 37°C and 5% CO2. The next day, the synthesized compounds were added (50 μl) in 3-fold serial dilutions at concentrations ranging from 0.4 to 300 μM, and the plates were incubated at 37°C and 5% CO2. Each compound concentration was assayed in triplicate. After 120 h, 50 μl of chlorophenol red β-D-galactopyranoside (CPRG, Sigma–Aldrich) and IGEPAL CA-630 (Sigma–Aldrich) at a final concentration of 0.1% were added. The absorbance was measured at a wavelength of 570 nm in an automated microplate reader. The data were transferred to SigmaPlot 10.0 (Systat Software Inc., Erkrath, Germany) to determine the IC50 values. Benznidazole (BZ, Sigma–Aldrich) was used as a positive control, and untreated wells (100% parasite growth) were used as negative controls in all plates. All compounds were tested in three independent assays.

Data set [2] is described as follows: Parallel artificial membrane permeability assay (PAMPA). The data set is classed as in vitro ADME. The note with it: PAMPA, Table 3; donor pH 6.5, acceptor pH 7.4, 5 h. On the procedure: The permeability of the compounds was assessed using the PAMPA method ([Yu et al., 2015]). The test compounds were dissolved in DMSO to a concentration of 5 mM. Next, the compounds were diluted in a stock plate in saline phosphate buffer (PBS), pH 6.5, containing 1% DMSO to a concentration of 1 µM. Then, 300 µl of each test compound was added to the donor plate. Afterward, 200 µl of PBS buffer, pH 7.4, was added to the acceptor plate. The donor plate was attached to the acceptor plate. The assembled acceptor-donor plate was then incubated at 37°C for 5 h under gentle agitation. To analyze the concentration of the compounds by mass spectrometry, two analysis plates (one for the donor and another for the acceptor plate) containing 300 μl of MEOH:ACN 50:50 were prepared. To the donor analysis plate, 90 µl of PBS, pH 6.5, and 10 µl of the content of the donor plate were added. For the acceptor analysis plate, 100 µl of the content of the acceptor plate was added. To monitor any potential decomposition/intrinsic instability of the test compounds in solution, samples from the stock plate were subjected to LC-MS/MS. The compounds that presented Pe ≥ 1.5 × 10^−6 cm/s were classified as permeable, while compounds that presented Pe < 1.5 × 10^−6 cm/s were considered poorly permeable or nonpermeable.
On the technique in general: The PAMPA barrier holds no transporters, so it reflects passive diffusion.

Some results are limits rather than exact numbers.

T1 sequence (P25779 123-337 limits assumed): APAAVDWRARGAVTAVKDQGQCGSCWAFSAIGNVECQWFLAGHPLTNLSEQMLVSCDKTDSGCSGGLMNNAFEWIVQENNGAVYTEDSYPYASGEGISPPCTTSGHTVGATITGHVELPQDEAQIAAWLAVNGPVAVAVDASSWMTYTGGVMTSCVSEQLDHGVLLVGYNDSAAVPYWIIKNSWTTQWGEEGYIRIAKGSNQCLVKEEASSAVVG
Sequence of rhodesain (Q95PM0 entry or part of it): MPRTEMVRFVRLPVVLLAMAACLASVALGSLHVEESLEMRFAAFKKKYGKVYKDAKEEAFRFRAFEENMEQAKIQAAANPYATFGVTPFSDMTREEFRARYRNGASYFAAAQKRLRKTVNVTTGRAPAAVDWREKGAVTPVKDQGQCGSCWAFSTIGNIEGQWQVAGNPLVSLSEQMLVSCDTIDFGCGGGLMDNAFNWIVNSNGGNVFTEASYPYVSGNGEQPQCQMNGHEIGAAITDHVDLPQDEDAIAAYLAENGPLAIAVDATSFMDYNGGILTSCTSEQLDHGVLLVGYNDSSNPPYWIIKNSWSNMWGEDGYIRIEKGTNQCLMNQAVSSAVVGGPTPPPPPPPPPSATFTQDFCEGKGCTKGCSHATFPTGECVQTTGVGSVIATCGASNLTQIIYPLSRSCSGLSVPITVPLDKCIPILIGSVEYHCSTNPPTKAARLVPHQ

The IC50 is the midpoint of a concentration-inhibition curve. In general, inhibition refers to the change of the read-out against control, counted positive when it falls. A higher inhibition goes with strong suppression. Usually Papp stands for a coefficient for how fast a substance crosses the barrier. Higher therefore signals ready permeation. With `O=C(COc1ccc2cc(C(=O)O)ccc2c1)NCCc1nc2ccccc2[nH]1` [Compound 13], the concentration for half-maximal inhibition (IC50) at cruzain (1.5 nM cruzain, 5.0 µM Z-FR-AMC, mean ± SD of 2–3 assays, read-out: IC50 (µM) against cruzain) was 24.2 ± 4.5 µM; in data set [1], over 50 µM. Further, the inhibition at 100 µM at cruzain (compound 100 µM, mean of three measures) was determined as 89%; against rhodesain, 54%. The compound further gave a Papp at 5 h, 1 µM in data set [2] of 0.83 ×10⁻⁶ cm/s.
